Laboratory results: ChEMBL document CHEMBL1955844, “Discovery of a series of imidazopyrazine small molecule inhibitors of the kinase MAPKAPK5, that show activity using in vitro and in vivo models of rheumatoid arthritis” (Bioorg Med Chem Lett, 2012)

How the values were obtained:
[1] = target: T1, MAP kinase-activated protein kinase 5 (Homo sapiens, UniProt Q8IW41); assay: Inhibition of MAPKAPK5
T1 sequence (Q8IW41 whole entry): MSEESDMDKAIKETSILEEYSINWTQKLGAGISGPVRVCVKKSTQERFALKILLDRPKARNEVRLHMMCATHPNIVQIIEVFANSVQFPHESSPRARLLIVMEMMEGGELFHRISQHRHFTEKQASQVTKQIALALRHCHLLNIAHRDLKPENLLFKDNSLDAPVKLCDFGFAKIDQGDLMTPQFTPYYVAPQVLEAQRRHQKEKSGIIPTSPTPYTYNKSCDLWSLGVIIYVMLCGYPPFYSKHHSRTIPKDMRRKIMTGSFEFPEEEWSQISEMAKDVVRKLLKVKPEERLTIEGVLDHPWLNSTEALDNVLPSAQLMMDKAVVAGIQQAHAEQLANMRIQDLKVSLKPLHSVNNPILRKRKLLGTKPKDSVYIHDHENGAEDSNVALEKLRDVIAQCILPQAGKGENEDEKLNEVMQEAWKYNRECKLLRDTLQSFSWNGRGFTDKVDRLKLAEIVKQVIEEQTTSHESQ

[2] = target: T1, MAP kinase-activated protein kinase 5; assay: Inhibition of MAPKAPK5 in synovial fibroblast from rheumatoid arthritis patient assessed as inhibition of TNF-alpha-induced MMP1 expression incubated for 30 mins prior to TNFalpha-challenge measured after 48 hrs by ELISA

IC50 [1] [µM] | IC50 [2] [µM] | SMILES
> 10 |  | CN(c1ccc(N2CCOCC2)cc1)c1ncc(-c2cn[nH]c2)n2ccnc12
1.49 | > 10 | c1cn2c(-c3c[nH]nn3)cnc(Nc3ccc(N4CCOCC4)cc3)c2n1
> 10 | > 10 | NS(=O)(=O)c1ccc(-c2cnc(Nc3ccc(N4CCOCC4)cc3)c3nccn23)cc1
2.39 | > 10 | NC(=O)c1ccc(-c2cnc(Nc3ccc(N4CCOCC4)cc3)c3nccn23)cc1F
> 10 |  | CCOc1cc(-c2cnc(Nc3ccc(N4CCOCC4)cc3)c3nccn23)ccn1
> 10 |  | CN(C)c1cc(-c2cnc(Nc3ccc(N4CCOCC4)cc3)c3nccn23)ccn1
2.82 | > 10 | NC(=O)c1cnc(-c2cnc(Nc3ccc(N4CCOCC4)cc3)c3nccn23)s1
3.2 | > 10 | NC(=O)c1ncc(-c2cnc(Nc3ccc(N4CCOCC4)cc3)c3nccn23)s1
> 10 |  | c1cn2c(-c3ccc4[nH]ccc4c3)cnc(Nc3ccc(N4CCOCC4)cc3)c2n1
3.73 |  | CN1CCN(c2ccc(Nc3ncc(-c4cc[nH]c(=O)c4)n4ncnc34)cc2)CC1
